These results are taken from patent US9499484B2, “Indole, indoline derivatives, compositions comprising them and uses thereof” (priority 2012, dated 2016).

Experiment [1] concerns ChE (AChE, BuChE) in plasma, muscle, spleen, brain. The conditions noted are these: for ChE inhibition in plasma, muscle, and spleen: after ip and or oral administration in mice.
Experimental: E. Acetylcholinesterase (AChE) and Butylcholinesterase (BuChE) Inhibition Ex Vivo
Compounds of the invention or saline were administrated by intraperitoneal (ip) injection or gavage to groups of 6-7 male ICR or Balb C mice (5-6 weeks of age). The mice were sacrificed 15, 30, 60 or 120 min after drug administration and the brain (minus cerebellum), spleen, and muscle were rapidly removed, weighed and put on ice. Blood was also collected in heparinised tubes, centrifuged at 14000 rpm at room temperature for 4 mM to provide plasma. Phosphate buffer pH 7 was added to each tissue to produce concentrations of 1 mg/mL for brain and spleen and 8 mg/mL for muscle. The tissues were homogenised in cold phosphate buffer pH 7 containing 0.1% Triton and centrifuged at 14000 rpm. Aliquots of plasma and the supernatant of all tissues were incubated with AcTh or BuTh and DTNB in phosphate buffer pH 7 and the rate of development of the yellow colour was measured as described above. Enzyme activity was measured for each time and drug concentration and percent inhibition of the AChE or BuChE activity was calculated by comparison with that of control mice injected with saline. Results are represented as p moles acetylthiocholine or butythiocholine hydrolysed/min/gm tissue.
The test system of experiment [2] is NO, BV2 mouse microglial cells. Nature of the experiment: NO reduction in LPS-stimulated BV2 microglia. The format is cell-based. The note with it: for Reduction in NO levels by at >20%, BV2 Microglia range: concentration range, None = no reduction up till 100 nM. The protocol: The BV2 mouse microglial cells were created by infecting primary mouse microglia with v-raf/v-myc oncogen-carrying retrovirus and donated by Dr. Sigal Fleisher—Berkovich (Ben-Gurion University of the Negev). The cells were cultured in RPMI 1640 containing 0.4 mM L-Glutamine, 10% FCS, 100 units/ml penicillin, 100 μg/ml streptomycin and maintained in a humidified incubator at 37° C. with 5% CO2. For measurement of the effect of compounds on the release of NO the cells were seeded in a density of 80,000 cells/ml and confluence of about 60%, and incubated with test compounds (in the absence of FCS) for […] All the medium was removed and fresh medium containing FCS and LPS (10 μg/ml) added and the cells maintained at 37° C. for 24 h. The release of NO into the medium was determined by measurement of nitrite levels using Griess reagent reaction. For measurement of protein levels of cytokines cells were seeded in a density of 80,000 and incubated with test compounds (in the absence of FCS) and then with LPS as described above. The medium was centrifuged and supernatants collected after 6 h for TNF-α (Biolegend) and after 20 h for IL-6 (Biolegend).

Experiment [3] has as its system DNBS-induced colon inflammation. The experiment can be described thus: DNBS-induced colitis in rats (model of Crohn's disease). The format is in vivo, rat. The conditions noted are these: rectal 1 mg/kg (2.5 μmoles/kg) prior to and after DNBS. The protocol:
H. Measurement of Effect of Compounds of the Invention in a Model of Crohn's Disease in Rats
Inflammation in the colon was induced in male rats of the Sabra strain (250-300 g) by intra-colonic administration of 1 mL of dinitrobenzensulfonic acid (DNBS) (35 mg/mL in ethanol 25% v/v) under isoflurane anaesthesia. The novel drugs (827B or 680D) or saline was given rectally 1 h prior to DNBS at a dose of 1 mg/kg (2.5 μmoles/kg), and then twice daily at the same dose 12, 24, 36, 48, 60 and 72 h later. A group of control rats received saline rectally instead of DNBS and were pre-treated with saline instead of drug. The rats were anaesthetized by ip injection of a mixture of xylazine 3 mg, ketamine 85 mg, 1 mL/kg. The colon was exposed through a longitudinal abdominal incision. The area of ulceration was estimated. Segments of 10 cm of the colon were removed, cut open and rinsed with ice-cold saline. After cleaning with cold saline (0.9%) the wet weight of the colon was measured. Pieces of colon were analysed for activity of myeloperoxidase (MPO), a marker of neutrophil granulocyte infiltration into the inflamed colon tissue. One unit of MPO activity was defined as the amount of enzyme present that produced a change in absorbance of […] at 25° C. Results were quantified as U/g protein.

The test system of experiment [4] is cytokine levels in spleen and brain. Nature of the experiment: Anti-inflammatory activity in LPS-injected mice, cytokine protein levels. The experiment is classed as in vivo, mouse. The note with it: 8 h after ip LPS 10 mg/kg, two doses. The protocol: G. Evaluation of Anti-Inflammatory Activity in Mice
For measurement of cytokine protein levels, mice were treated with saline or LPS as described above and sacrificed 4 h or 8 h after drug administration, the spleen and rapidly brain removed. The brain was separated into fore, mid and hind sections (minus cerebellum) and frozen in liquid nitrogen and stored at −80° C. until use. […] The supernatant was rapidly frozen in liquid nitrogen and stored until use at −80° C. Cytokines were detected by using Elisa kits (Biolegend) and protein determination performed with Bradford reagent (Bio-RAD, 500-0006).

The test system of a further experiment is NO, RAW 264.7 cells. The experiment can be described thus: NO reduction in LPS-stimulated RAW 264.7 macrophages. The experiment is classed as cell-based, mouse. The note with it: Mus musculus, RAW264.7, 24 h, read-out: Reduction in NO levels, RAW Macrophages % peak reduction.
The next experiment deals with T1, BuChE (UniProt P81908).
T1 construct: 120 min incubation; BuChE IC50
The experiment is classed as biochemical, human or equine serum. The conditions noted are these: read-out: IC50 BuChE 120 min; Table 3; 120 min incubation. The gist of the method: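 Enzyme incubated at 37° C with 6-10 compound concentrations, sampled at 15, 30, 60 and 120 min; residual activity read kinetically on a microplate reader. Percent inhibition relative to no-drug enzyme; BuChE run likewise with 0.075M butylthiocholine iodide as substrate.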

A short description of the next experiment: Radical scavenging, Sin1. The experiment is classed as biochemical. The conditions noted are these: mean ± SD, three independent experiments.
A short description of experiment [5]: Fall in body temperature in rats. The format is in vivo, rat. The note with it: ip injection of two doses. On the procedure:
F. Temperature Measurements in Rats
Monitoring body temperature at different times after drug administration enables one to assess in vivo both the extent of drug effect and its duration in the same group of rats. Test compounds or saline were administrated by ip injection or by gavage to female Wistar rats aged 3-4 months. Body temperature was measured rectally by means of a thermocouple probe, before and every 30 min after drug administration until this returned to pre-injection values. The change in body temperature induced by the drug was computed for each dose at each time point in comparison with the temperature prior to drug injection.

The subject of experiment [6] is TNF-α, BV2 mouse microglial cells. The experiment can be described thus: TNF-α reduction in LPS-stimulated BV2 microglia. The experiment is classed as cell-based. The note with it: for Reduction in TNF-α levels, BV2 Microglia range: concentration range, None = no reduction up till 100 nM.
The nature of experiment [7]: Radical scavenging, glucose oxidase/luminol luminescence. The format is biochemical. The conditions noted are these: concentration reducing luminescence/radical by 50%; mean ± SD, three independent experiments. In outline: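 Glucose oxidase, luminol, sodium selenite and Co2+ in HBSS generate H2O2-driven oxidant luminescence. Compounds were added at several concentrations. The value is the concentration reducing luminescence by 50%.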

Another experiment concerns TNF-α, RAW 264.7 cells. The experiment can be described thus: TNF-α reduction in LPS-stimulated RAW 264.7 macrophages. The experiment is classed as cell-based, mouse. The note with it: for Emax: Mus musculus, RAW264.7, 6 h, read-out: Reduction in TNF-α levels, RAW Macrophages % peak reduction.
Experiment [8] concerns primary neurones in culture. The note with it: Chyan et al., J. Biol. Chem. 1999; cited from earlier work.
The subject of a further experiment is conversion of MCI to AD. The note with it: chronic treatment; cited from earlier work.

Counter-ions that a name gives are not always drawn.

For `CCN(C)C(=O)Oc1ccc2c(c1)NCC2CCC(=O)OC.CS(=O)(=O)O` (stereo not drawn) [AN-680D, Methyl 3-(6-((ethyl(methyl)carbamoyl)oxy)indolin-3-yl)propanoate methanesulfonate], the “inhibition of ChE in mouse brain” value in experiment [1] (100 μmoles/kg) is given as “no significant inhibition”. In [2], the “Reduction in NO levels, BV2 Microglia % peak reduction” value was determined as 37.1 ± 5.3% and the “Reduction in NO levels by at >20%, BV2 Microglia range” value is 10^−3-100 nM. Besides, in experiment [3], the “reduced MPO activity” value was found to be 80%, the reduced colon weight came to 30% and the “reduced the area of colonic ulceration” value is on record as 95%. For the same compound, in experiment [4], the “reduction in cytokine levels in cerebral cortex (FIG. 6B)” value is given as “reduction” and the “reduction in cytokine levels in spleen (FIG. 6A)” value was “reduction”. For the same compound, the Emax with NO, RAW 264.7 cells is 47.8 ± 1.8%.

On to `CCN(C)C(=O)Oc1cccc2c1CCN2` [AN-854, Indolin-4-yl ethyl(methyl)carbamate hydrochloride], for which the “inhibited ChE in the mouse brain” value in experiment [1] (50 μmoles/kg) came to 30%. Moreover, the “ChE inhibition in plasma, muscle, and spleen” value in experiment [1] is on record as “inhibited ChE”. The “Reduction in NO levels by at >20%, BV2 Microglia range” value in experiment [2] is reported as “None”. For the same compound, the IC50 (commonly the concentration that inhibits the measured activity by half) on BuChE is 700 nM; in “Radical scavenging, Sin1”, 570 ± 10 nM; in [7], 1380 ± 100 nM. In [5], the “fall in body temperature in rats (FIG. 4)” value is “fall in body temperature”. The “Reduction in TNF-α levels, BV2 Microglia % peak reduction” value in [6] amounted to 8.4 ± 1.7%. In addition, in experiment [6], the “Reduction in TNF-α levels, BV2 Microglia range” value was found to be 100 nM. The Emax in the experiment on NO, RAW 264.7 cells was 45.2 ± 1.4%; in the experiment on TNF-α, RAW 264.7 cells it was 41.1 ± 3.8%.

On to `CCN(C)C(=O)Oc1cccc2c1C(CCN)CN2` (stereo not drawn) [AN-890, 3-(2-Aminoethyl)indolin-4-yl ethyl(methyl)carbamate dihydrochloride], for which the “ChE inhibition in plasma, muscle, and spleen” value in experiment [1] is “inhibited ChE”. The “ChE inhibition in skeletal muscle” value in experiment [1] (mice, 1 mg/kg) was “little or no effect”. Also, the “ChE inhibition in plasma and spleen” value in experiment [1] (mice, 1 mg/kg, ip and oral, 30 to 120 min) was “inhibited ChE in plasma and spleen equally well after ip and oral administration”. The “Reduction in NO levels by at >20%, BV2 Microglia range” value in [2] was “None”. Moreover, the IC50 on BuChE is 200 nM; in the experiment “Radical scavenging, Sin1” it was 2130 ± 180 nM; in experiment [7], 70 ± 10 nM. Moreover, in experiment [6], the “Reduction in TNF-α levels, BV2 Microglia range” value is “None”. Moreover, the Emax in the experiment with NO, RAW 264.7 cells was 54.6 ± 2.3%; in the experiment with TNF-α, RAW 264.7 cells it was 36.6 ± 4.1%. In the experiment with TNF-α, RAW 264.7 cells, the “inhibition of the level of TNF-α induced in RAW cells by LPS (FIG. 3)” value is on record as “inhibition”.

As to `O=C(O)CCc1c[nH]c2ccccc12` [IPA, 3-indole-propionic acid], in [8], the “protection of primary neurones against oxidative damage induced by beta amyloid” value was “protects primary neurones in culture against oxidative damage induced by beta amyloid”.

`COc1cc2c(cc1OC)C(=O)C(CC1CCN(Cc3ccccc3)CC1)C2` (stereo not drawn) [donepezil]: the “proportion of MCI patients converting to AD” value in the experiment on conversion of MCI to AD is on record as “did not reduce the proportion converting to AD”.
